Each structure is given as a SMILES string. Activity calls are given as the source filed them. The rule behind the calls is not given here.

Experimental findings from ChEMBL document CHEMBL4665828, “Glucosylpolyphenols as Inhibitors of Aβ-Induced Fyn Kinase Activation and Tau Phosphorylation: Synthesis, Membrane Permeability, and Exploratory Target Assessment within the Scope of Type 2 Diabetes and Alzheimer's Disease” (J Med Chem, 2020) are described below.

The target of data set [1] is Cholinesterase (Equus caballus) (UniProt P81908). Description: Inhibition of equine serum BuChE at 100 uM using butyrylthiocholine iodide as substrate by Ellman's colorimetric analysis relative to control. A general note: In Ellman's method for cholinesterases, released thiocholine reacts with DTNB.
Chain of Cholinesterase (Equus caballus) (P81908 whole entry): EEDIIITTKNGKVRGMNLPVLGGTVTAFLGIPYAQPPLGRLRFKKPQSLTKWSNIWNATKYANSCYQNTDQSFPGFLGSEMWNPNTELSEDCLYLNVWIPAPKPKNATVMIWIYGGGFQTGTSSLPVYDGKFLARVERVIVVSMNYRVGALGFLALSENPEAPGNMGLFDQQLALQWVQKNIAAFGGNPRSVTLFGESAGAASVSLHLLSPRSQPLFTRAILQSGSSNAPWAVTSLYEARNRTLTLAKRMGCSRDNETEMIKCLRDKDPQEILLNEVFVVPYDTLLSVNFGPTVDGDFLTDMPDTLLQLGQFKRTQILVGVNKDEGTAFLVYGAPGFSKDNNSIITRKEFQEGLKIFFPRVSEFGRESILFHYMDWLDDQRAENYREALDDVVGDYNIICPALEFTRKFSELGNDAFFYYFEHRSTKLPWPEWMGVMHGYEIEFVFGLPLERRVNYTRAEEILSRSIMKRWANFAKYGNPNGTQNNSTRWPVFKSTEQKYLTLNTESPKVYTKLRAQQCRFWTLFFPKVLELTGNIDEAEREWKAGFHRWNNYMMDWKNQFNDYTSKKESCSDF
For data set [2], the target named is Acetylcholinesterase (Electrophorus electricus) (UniProt O42275). Description: Inhibition of electric eel AChE at 100 uM using acetylthiocholine iodide as substrate by Ellman's colorimetric analysis relative to control.
Chain of Acetylcholinesterase (Electrophorus electricus) (O42275 24-633 limits assumed): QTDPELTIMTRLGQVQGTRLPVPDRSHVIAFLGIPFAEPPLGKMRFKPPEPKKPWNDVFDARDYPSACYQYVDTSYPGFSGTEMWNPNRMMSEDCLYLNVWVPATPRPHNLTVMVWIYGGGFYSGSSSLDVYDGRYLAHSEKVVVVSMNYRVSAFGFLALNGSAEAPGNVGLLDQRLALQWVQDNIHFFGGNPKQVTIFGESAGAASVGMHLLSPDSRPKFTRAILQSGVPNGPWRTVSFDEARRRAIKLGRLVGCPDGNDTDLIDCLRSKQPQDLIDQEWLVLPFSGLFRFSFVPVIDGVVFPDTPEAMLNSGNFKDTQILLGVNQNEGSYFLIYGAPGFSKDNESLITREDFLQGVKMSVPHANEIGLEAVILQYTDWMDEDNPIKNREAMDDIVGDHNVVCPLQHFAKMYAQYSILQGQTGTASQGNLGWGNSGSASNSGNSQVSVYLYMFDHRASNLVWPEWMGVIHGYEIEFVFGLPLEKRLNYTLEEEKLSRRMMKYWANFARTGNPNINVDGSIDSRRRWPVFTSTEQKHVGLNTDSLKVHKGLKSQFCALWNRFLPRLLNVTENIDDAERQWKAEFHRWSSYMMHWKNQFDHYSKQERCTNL
A short description of data set [3]: Cytotoxicity against hiPSC neural cells assessed as reduction in cell viability at 10 uM incubated for 24 hrs by MTT assay. The data set is classed as cell-based. The conditions noted are these: human, induced pluripotent stem cell-derived neuron. For orientation: Formazan colour is commonly taken as a measure of viable cells.
Data set [4] is described as follows: Membrane retention of compound at pH 7.4 incubated for 16 hrs by PAMPA assay. The data set is classed as ADME. The conditions noted are these: pH 7.4, 16 h. (In PAMPA a lipid-coated filter parts donor from acceptor wells.)
Data set [5] addresses T1, Tyrosine-protein kinase Fyn (Homo sapiens, UniProt P06241). Description: Inhibition of basal Fyn activation in hiPSC neural progenitor cells assessed as reduction in pFyn levels in absence of amyloid beta at 10 uM by DAPI staining based immunofluorescence assay. Conditions: induced pluripotent stem cell-derived neuron.
Target sequence in this assay (P06241 whole entry): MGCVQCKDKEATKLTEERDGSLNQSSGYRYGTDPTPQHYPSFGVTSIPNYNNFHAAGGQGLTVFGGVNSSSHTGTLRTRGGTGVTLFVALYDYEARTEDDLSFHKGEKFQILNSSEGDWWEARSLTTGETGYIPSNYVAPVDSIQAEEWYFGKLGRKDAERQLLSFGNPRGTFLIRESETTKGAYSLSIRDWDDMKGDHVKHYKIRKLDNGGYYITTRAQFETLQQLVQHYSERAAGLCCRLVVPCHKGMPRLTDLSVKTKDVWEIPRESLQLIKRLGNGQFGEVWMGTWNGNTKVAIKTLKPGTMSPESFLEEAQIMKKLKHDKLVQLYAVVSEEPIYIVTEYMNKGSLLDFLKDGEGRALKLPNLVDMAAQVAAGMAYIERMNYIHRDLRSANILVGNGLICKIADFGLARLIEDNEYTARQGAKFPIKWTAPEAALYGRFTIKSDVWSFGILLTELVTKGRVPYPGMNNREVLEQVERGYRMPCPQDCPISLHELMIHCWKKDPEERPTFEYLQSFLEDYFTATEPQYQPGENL
Data set [6] is described as follows: Octanol/water partition coefficient, log D of compound at pH 7.4 at 1 uM incubated for 2 hrs by LC-MS analysis. The format is physicochemical.
Data set [7] addresses Amyloid-beta precursor protein (Homo sapiens) (UniProt P05067). Description: Inhibition of human amyloid beta (1 to 42) self-induced aggregation at 50 uM by Thioflavin T based fluorometric assay.
For data set [8] the following is noted: buffer, 100 µM.
The nature of data set [9]: Aqueous solubility of the compound in 5 % DMSO at 50 to 100 uM incubated for 2 hrs. The data set is classed as physicochemical. The conditions noted are these: buffer, dose 50-100 µM.
For data set [10] the following is noted: pampa, pH 7.4, 16 h.
Data set [11] addresses T1, Tyrosine-protein kinase Fyn. Description: Inhibition of amyloid beta-induced Fyn activation in hiPSC neural cells assessed as reduction in tau phosphorylation at Thr 181 residue at 10 uM measured after 4 days by DAPI/Alexa fluor 594 staining based immunocytochemistry analysis. Conditions: Induced pluripotent stem cell-derived neuron, time 4.0 day.
Target sequence in this assay (P06241 2-537 limits assumed): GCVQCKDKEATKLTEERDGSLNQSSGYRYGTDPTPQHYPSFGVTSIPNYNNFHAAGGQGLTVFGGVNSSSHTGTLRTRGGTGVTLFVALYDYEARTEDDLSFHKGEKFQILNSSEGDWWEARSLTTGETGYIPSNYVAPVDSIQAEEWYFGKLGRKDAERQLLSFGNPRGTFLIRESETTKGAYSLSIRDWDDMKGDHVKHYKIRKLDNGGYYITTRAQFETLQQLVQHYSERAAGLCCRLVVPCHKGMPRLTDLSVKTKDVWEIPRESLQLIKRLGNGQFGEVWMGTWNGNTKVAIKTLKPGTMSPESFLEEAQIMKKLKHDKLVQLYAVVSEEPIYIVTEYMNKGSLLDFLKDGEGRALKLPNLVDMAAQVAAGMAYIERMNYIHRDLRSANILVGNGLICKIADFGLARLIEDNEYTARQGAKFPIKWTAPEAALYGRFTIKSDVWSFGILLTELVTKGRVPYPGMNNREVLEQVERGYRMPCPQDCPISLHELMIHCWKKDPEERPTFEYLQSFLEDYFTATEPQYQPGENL
Data set [12] shares this target. Description: Inhibition of natural amyloid beta (1 to 42) -induced Fyn activation in hiPSC neural progenitor cells assessed as reduction in Fyn production at 10 uM preincubated fot 45 mins followed by amyloid beta addition and measured after 15 mins by DAPI/Alexa fluor 594 immunostaining based assay. The conditions noted are these: Induced pluripotent stem cell-derived neuron, time 60.0 min.
Target sequence in this assay (P06241 2-537 limits assumed): as above

Data set [13] can be described thus: Aggregation property of the compound in PBS buffer at 10 to 100 uM incubated for 2 hrs by UV/Vis double beam spectrophotometric method. The format is physicochemical. Conditions: dose 10-100 µM.
Data set [14] has as its target T1, Tyrosine-protein kinase Fyn. Description: Inhibition of Fyn activation (unknown origin) by ADP-Glo kinase assay.
Target sequence in this assay (P06241 2-537 limits assumed): as above
Data set [15] is described as follows: Aggregation property of the compound in PBS buffer assessed as aggregate formation at 10 to 100 uM incubated for 2 hrs by light scattering spectrofluorimetric assay. The data set is classed as physicochemical. Conditions: dose 10-100 µM.
The nature of data set [16]: Cytotoxicity against hiPSC neural cells assessed as reduction in cell viability up to 100 uM incubated for 24 hrs by MTT assay. The format is cell-based. Conditions: human, induced pluripotent stem cell-derived neuron.
The next data set concerns Saccharomyces cerevisiae. Description: Competitive inhibition of Saccharomyces cerevisiae alpha-glucosidase at 100 uM using p-nitrophenyl glycosides as substrate measured for 125 secs by spectrophotometry analysis relative to control. Conditions: time 125.0 sec.
Data set [17] can be described thus: Competitive inhibition of Saccharomyces cerevisiae alpha-glucosidase assessed as inhibition constant for inhibitor-enzyme complex formation using p-nitrophenyl glycosides as substrate measured for 125 secs by spectrophotometry analysis.
A short description of data set [18]: Cytotoxicity against hiPSC neural cells assessed as reduction in cell viability up to 50 uM incubated for 24 hrs by MTT assay. The format is cell-based. The conditions noted are these: human, induced pluripotent stem cell-derived neuron.

Chain of Amyloid-beta precursor protein (Homo sapiens) (P05067 whole entry): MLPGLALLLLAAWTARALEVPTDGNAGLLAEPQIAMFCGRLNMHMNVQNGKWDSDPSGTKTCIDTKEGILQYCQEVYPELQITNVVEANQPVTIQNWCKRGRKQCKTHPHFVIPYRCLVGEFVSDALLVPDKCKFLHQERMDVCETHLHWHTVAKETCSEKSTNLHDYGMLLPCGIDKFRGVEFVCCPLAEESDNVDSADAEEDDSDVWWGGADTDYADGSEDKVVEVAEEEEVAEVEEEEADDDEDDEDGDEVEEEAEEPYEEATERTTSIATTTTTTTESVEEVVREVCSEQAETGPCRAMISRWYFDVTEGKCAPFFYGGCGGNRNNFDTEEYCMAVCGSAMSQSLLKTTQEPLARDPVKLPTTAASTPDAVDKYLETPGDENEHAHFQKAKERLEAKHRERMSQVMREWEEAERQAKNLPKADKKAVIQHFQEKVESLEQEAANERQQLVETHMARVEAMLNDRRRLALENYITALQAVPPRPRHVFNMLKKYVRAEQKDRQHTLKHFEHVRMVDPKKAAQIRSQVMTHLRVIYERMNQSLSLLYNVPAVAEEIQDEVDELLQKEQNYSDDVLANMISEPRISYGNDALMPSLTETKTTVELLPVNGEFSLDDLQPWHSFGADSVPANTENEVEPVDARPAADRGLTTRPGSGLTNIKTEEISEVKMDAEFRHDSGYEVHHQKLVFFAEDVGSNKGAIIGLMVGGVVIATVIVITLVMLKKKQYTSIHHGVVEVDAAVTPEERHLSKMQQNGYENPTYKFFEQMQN

In data set [1], `O=C(Cc1ccccc1)c1c(O)cc(O)c([C@@H]2O[C@H](CO)[C@@H](O)[C@H](O)[C@H]2O)c1O` came in with an inhibition of 17%. Besides, the inhibition result in [2] was “inactive”.

In the case of `COC[C@H]1O[C@@H](c2cc(OC(=O)c3ccccc3)ccc2O)[C@H](OC)[C@@H](OC)[C@@H]1OC`, the Activity result in [3] is “Non-Toxic”. Further, the inhibition is 12% in [1] and 14% in [2]. In [4], this compound gave a Drug uptake of 80%. Also, the “inhibition (INH)” value in [5] is reported as “Not Active”. In addition, the logD at 2 h, 1 µM in [6] amounted to 3.2.

`COC[C@H]1O[C@@H](c2c(O)ccc3ccccc23)[C@H](OC)[C@@H](OC)[C@@H]1OC`: the Activity entry in data set [3] is “Non-Toxic”. In data set [1], this compound came in with an inhibition of 23%. In [5], the “inhibition (INH)” value is given as “Not Active”. In addition, the logD at 2 h, 1 µM in data set [6] is 2.7. Moreover, in [2], the inhibition result is “inactive”.

Regarding `Oc1ccc(OC2O[C@H](COCc3ccccc3)[C@@H](OCc3ccccc3)[C@H](OCc3ccccc3)[C@H]2OCc2ccccc2)cc1` (stereo partly specified), the inhibition entry in [7] was “inactive”.

In the case of `COC[C@H]1O[C@@H](c2cc(OC(=O)c3ccccc3)ccc2OC(=O)c2ccccc2)[C@H](OC)[C@@H](OC)[C@@H]1OC`, the Activity result in data set [3] was “Non-Toxic”. Further, the inhibition worked out at 16% in data set [1] and 19% in data set [2]. Moreover, the solubility entry in data set [8] and in [9] was “Insoluble” throughout. Also, the “inhibition (INH)” value in data set [5] is “Not Active”. Moreover, the logPeff result in data set [10] was “Not Active”. Further, the inhibition entry in [11] and in data set [12] was “Active” in each case. For the same compound, the log distribution coefficient (logD) at 2 h, 1 µM in data set [6] is > 2.5.

Consider `COC[C@H]1O[C@@H](c2cc(O)ccc2O)[C@H](OC)[C@@H](OC)[C@@H]1OC`, for which the results for the Activity result in data set [3], in data set [13] and in data set [15] were “Non-Toxic”, “Not Active” and “Not Active”, respectively. The compound also showed an inhibition in data set [1] of 21%. Also, the “inhibition (INH)” value in data set [5] was “Not Active”. The inhibition entry in data set [14] and in data set [11] was “Active” in each case. For the same compound, the inhibition result in data set [7] and in data set [2] was “inactive” throughout.

In the case of `O=C(Oc1ccc([C@@H]2O[C@H](CO)[C@@H](O)[C@H](O)[C@H]2O)cc1OC(=O)c1ccccc1)c1ccccc1`, the Activity entry in data set [3] is given as “Non-Toxic”; in data set [13] it was “Not Active”; in data set [16] it was “Non-Toxic”; in data set [15], “Not Active”. The inhibition in data set [1] is 39%. For the same compound, the “inhibition (INH)” value in data set [5] is given as “Not Active”. For the same compound, the inhibition result in [7] and in data set [2] was “inactive” in each case. Moreover, the inhibition entry in data set [11] and in data set [12] was “Active” each time.

On to `O=c1c(-c2ccc(O)cc2)coc2c([C@@H]3O[C@H](CO)[C@@H](O)[C@H](O)[C@H]3O)c(O)cc(O)c12`, for which the logD at 2 h, 1 µM in data set [6] is -0.1.

Turning to `COC[C@H]1O[C@@H](c2ccc(O)c(O)c2)[C@H](OC)[C@@H](OC)[C@@H]1OC`, the Activity result in data set [3] is listed as “Non-Toxic”. Besides, the inhibition in [1] worked out at 16%; in data set [2], 15%. Besides, the “inhibition (INH)” value in data set [5] was “Not Active”. The inhibition entry in data set [7] is “inactive”. This compound also returned a logD at 2 h, 1 µM in data set [6] of 1.1.

For `O=C(Oc1ccccc1O[C@H]1O[C@H](CO)[C@@H](O)[C@H](O)[C@H]1O)c1ccccc1`, the Activity entry was “Non-Toxic” in data set [3], “Not Active” in data set [13] and “Not Active” in data set [15]. For the same compound, the inhibition in data set [1] was found to be 17%; in the data set with Saccharomyces cerevisiae it was 74%; in data set [2], 10%. Also, the “inhibition (INH)” value in data set [5] was “Not Active”. The inhibition entry in data set [7] and in data set [11] was “inactive” each time. Also, the logD at 2 h, 1 µM in data set [6] came out at 0.1. For the same compound, in data set [17], the Ki came to 39 µM.

With `COC[C@H]1O[C@@H](c2c(O)cc(O)cc2O)[C@H](OC)[C@@H](OC)[C@@H]1OC`, the results for the Activity entry in data set [3], in data set [13] and in data set [15] were “Non-Toxic”, “Not Active” and “Not Active”, respectively. In data set [1], this compound had an inhibition of 10%. Further, the “inhibition (INH)” value in data set [5] is given as “Not Active”. Besides, the inhibition result in data set [14] and in [12] was “Active” in each case. The inhibition result in data set [11] and in data set [2] was “inactive” in each case. In data set [6], the logD at 2 h, 1 µM stood at 1.6.

Turning to `CC(=O)c1c(O)cc(O)c([C@@H]2O[C@H](CO)[C@@H](O)[C@H](O)[C@H]2O)c1O`, the Activity result in data set [3] is “Non-Toxic”; in data set [13], “Not Active”; in data set [16], “Non-Toxic”; in data set [15], “Not Active”. The inhibition in data set [1] was 15%. The “inhibition (INH)” value in data set [5] is “Not Active”. The logPeff entry in data set [10] is listed as “Bld”. The inhibition entry in [11] and in data set [12] was “Active” each time. Also, the inhibition entry in [2] was “inactive”.

As for `O=C(Oc1ccc(O)c([C@@H]2O[C@H](CO)[C@@H](O)[C@H](O)[C@H]2O)c1)c1ccccc1`, the Activity entry in data set [3] is “Non-Toxic”; in data set [13] it was “Not Active”; in data set [15], “Not Active”. For the same compound, the inhibition result in data set [1], in data set [7] and in data set [2] was “inactive” throughout. In addition, in data set [5], the “inhibition (INH)” value was “Not Active”. Further, in data set [6], the log distribution coefficient (logD) at 2 h, 1 µM was < 0.5. For the same compound, the inhibition entry in data set [12] was “Active”.

Regarding `OC[C@H]1O[C@@H](c2c(O)ccc3ccccc23)[C@H](O)[C@@H](O)[C@@H]1O`, the Activity result is “Non-Toxic” in data set [3], “Not Active” in data set [13] and “Not Active” in data set [15]. In data set [1], the inhibition was found to be 10%. Further, the “inhibition (INH)” value in data set [5] is recorded as “Not Active”. For the same compound, the inhibition entry in [7] and in data set [2] was “inactive” throughout. The inhibition result in data set [12] is “Active”.

Turning to `O=C(Oc1ccc(OC(=O)c2ccccc2)c([C@@H]2O[C@H](CO)[C@@H](O)[C@H](O)[C@H]2O)c1)c1ccccc1`, the Activity result in data set [3] is listed as “Non-Toxic”. For the same compound, in [1], the inhibition was found to be 21%. Besides, the “inhibition (INH)” value in data set [5] was “Not Active”. The pH-dependent lipophilicity (logD) at 2 h, 1 µM in data set [6] was 2. In addition, in data set [2], the inhibition result was “inactive”.

With `O=C(Cc1ccccc1)Oc1cc(O)cc(O)c1`, the inhibition entry in data set [7] is “inactive”.

`O=C(Oc1ccc(O[C@H]2O[C@H](CO)[C@@H](O)[C@H](O)[C@H]2O)cc1)c1ccccc1`: the Activity result in data set [3] and in data set [16] was “Non-Toxic” in each case. Moreover, the inhibition in [1] amounted to 10%. In addition, the “inhibition (INH)” value in data set [5] is “Not Active”. Further, in data set [10], the logPeff result is “Not Active”. Besides, the inhibition entry in data set [11] is “Active”. The log distribution coefficient (logD) at 2 h, 1 µM in [6] was 1. The inhibition entry in [2] is “inactive”.

On to `CC(=O)N1CCN(c2ccc(OCC3COC(Cn4ccnc4)(c4ccc(Cl)cc4Cl)O3)cc2)CC1` (stereo unspecified) [KETOCONAZOLE], for which, in data set [15], the Activity entry is “Not Active”.

Consider `COC[C@H]1O[C@@H](c2c(O)cc(O)c(C(C)=O)c2O)[C@H](OC)[C@@H](OC)[C@@H]1OC`, for which the Activity result is reported as “Non-Toxic” in data set [3], “Not Active” in data set [13], “Non-Toxic” in data set [18] and “Not Active” in data set [15]. In addition, the inhibition in data set [1] is 16%. In addition, the “inhibition (INH)” value in data set [5] is “Not Active”. For the same compound, the inhibition result in data set [14], in [7] and in data set [2] was “inactive” throughout. Moreover, the inhibition entry in data set [11] and in data set [12] was “Active” throughout. This compound had a logD at 2 h, 1 µM in data set [6] of 2.3.

`O=C(Cc1ccccc1)c1c(O)cc(O)cc1O`: the inhibition entry in data set [7] is “inactive”.

The term inhibition denotes the change of the read-out against control, counted positive when it falls. For orientation: logD means the decadic logarithm of the distribution of all forms, ionised or not, between an organic phase and buffer at a given pH. Low values mean a more hydrophilic compound, high ones a more lipophilic compound. The term Ki denotes a dissociation constant, usually derived from enzyme kinetics or from competition with a known ligand.
